This note sets out measurements from ChEMBL document CHEMBL1125961, “Monodeoxy-1,4:3,6-dianhydrohexitol nitrates” (1991).

Active and inactive are the calls of the source. No cut-off for these calls is given here.

Test [1] is filed under the species Oryctolagus cuniculus. In words: Compound was evaluated for reduction of arterial medium pressure of rabbit by 30 mm Hg. It counts as functional, Artery.
Test [2] has as its system Rattus norvegicus. In words: Compound was evaluated for T-wave increase of rat EKG measured as percent reduction after 30 min at a dosage of 200 mg/kg. It counts as functional.
Test [3] deals with Rattus norvegicus. Kind of test: Compound was evaluated for T-wave increase of rat EKG measured as percent reduction after 30 min at a dosage of 60 mg/kg. It counts as functional.
Test [4] has as its system Rattus norvegicus. Kind of test: Compound was evaluated for T-wave increase of rat EKG measured as percent reduction after 30 min at a dosage of 4 mg/kg. It counts as functional.
Test [5] deals with Rattus norvegicus. Kind of test: Compound was evaluated for T-wave increase of rat EKG measured as percent reduction after 30 min at a dosage of 8 mg/kg. It counts as functional.
The subject of test [6] is Rattus norvegicus. In words: Compound was evaluated for T-wave increase of rat EKG measured as percent reduction after 30 min at a dosage of 100 mg/kg; NE means no effect. It counts as functional, organism-based. Also on record: dose 100 mg/kg.
[7] abbreviates: Oryctolagus cuniculus, Artery, read-out: ED30.

On to `O=[N+]([O-])OC1COC2CCOC21` (stereo in doubt; 6a), for which, in test [1] (setting [7]), the ED30 turned out to be 0.6 mg/kg. Further, the Reduction in test [2] (200 mg/kg) was -38%.
In turn, `O=[N+]([O-])OC1CO[C@@H]2C(O)CO[C@H]12` (single isomer, unassigned) [ISOSORBIDE MONONITRATE] displayed an ED30 in test [1] of 3.43 mg/kg. Also, in test [3], the Reduction is -43%.
Take `O=[N+]([O-])O[C@H]1CO[C@H]2[C@@H]1OC[C@H]2O[N+](=O)[O-]` [ISOSORBIDE DINITRATE]: the ED30 in test [1] (setting [7]) was found to be 0.08 mg/kg. In test [4], the Reduction was -75%.
Molecule `O=[N+]([O-])OC1COC2C1OC[C@@H]2Cl` (stereo in doubt; 5b) [listing 1 of 2 here] came in with an ED30 in test [1] of 0.14 mg/kg.
In the case of `O=[N+]([O-])OC1COC2CCOC21` (stereo in doubt; 6b), the ED30 in test [1] is 1 mg/kg. Also, the Reduction in test [2] (200 mg/kg) is on record as -33%.
Turning to `O=[N+]([O-])O[C@@H]1CO[C@H]2[C@@H]1OC[C@@H]2O` [ISOSORBIDE MONONITRATE], the ED30 in test [1] stood at 0.31 mg/kg. Besides, the Reduction in test [5] is -59%.
Take `O=[N+]([O-])OC1COC2C1OC[C@@H]2Cl` (stereo in doubt; 5b) [listing 2 of 2 here]: the Reduction entry in test [6] was “inactive”.
Take `O=[N+]([O-])OC1COC2C1OC[C@@H]2Cl` (stereo in doubt; 5a): in test [1] (setting [7]), the ED30 came out at 0.1 mg/kg. The Reduction in test [2] is given as -38%.
